Laboratory results reported in US20230159445A1, “STAT INHIBITORY COMPOUNDS AND COMPOSITIONS” (JANPIX LIMITED, priority 2020, published 2023).

Tested on: MV4-11 cells
Assay: MV4-11 Cell Cytotoxicity Assay (CellTiter-Blue, 72 h)
Format: cell-based, human
Settings: Homo sapiens, MV4-11; MV-4-11 cells
Procedure: In some embodiments, the potency of the STAT5 inhibitors are evaluated by an in vitro assay such as MV4-11 Cell Cytotoxicity Assay. […] 10,000 cells were plated per well in 96-well flat-bottom sterile culture plates with low-evaporation lids. After 24 h, inhibitors and a vehicle control (0.5% DMSO) were added and the cells were incubated for 72 h at 37° C. in 5% CO2. Inhibitors were examined in triplicate at a maximal concentration of 50 μM, followed by 1:2 dilutions in subsequent wells (25, 12.5, 6.25, 3.125, 1.5625, 0.78125, 0.390625, 0.195313 and 0.097656 μM). After 72 h, the wells were treated with CellTiter-Blue® (20 μL/well), and the plates were incubated using standard cell culture conditions for 1 hour. Fluorescence was measured at 560/590 nm.

Row | Compound | IC50 [µM]
1 | CC(C)(C)c1cc(CN(C(=O)CN(Cc2ccccn2)S(=O)(=O)c2c(F)c(F)c(F)c(F)c2F)c2ccc(C(=O)O)c(O)c2)cc(C2CC2)c1 [Compound 1008, 4-(N-(3-(tert-butyl)-5-cyclopropylbenzyl)-2-(N-(pyridin-2-ylmethyl)-(2,3,4,5,6-pentafluorophenyl)sulfonamido)acetamido)-2-hydroxybenzoic acid] | 3.16 to 100
2 | COc1c(CN(C(=O)CN(Cc2ccc(Cl)cc2)S(=O)(=O)c2c(F)c(F)c(F)c(F)c2F)c2ccc(C(=O)O)c(O)c2)cc(C(C)(C)C)cc1C1CC1 [Compound 1009, 4-(N-(5-(tert-butyl)-3-cyclopropyl-2-methoxybenzyl)-2-(N-(4-chlorobenzyl)-(2,3,4,5,6-pentafluorophenyl)sulfon-amido)acetamido)-2-hydroxybenzoic acid] | 3.16 to 100
3 | O=C(O)c1ccc(N(Cc2cc(OCC3CC3)cc(OCC3CC3)c2)C(=O)CN(Cc2ccc(Cl)cc2)S(=O)(=O)c2c(F)c(F)c(F)c(F)c2F)cc1O [Compound 1011, 4-(N-(3,5-bis(cyclopropylmethoxy)benzyl)-2-(N-(4-chlorobenzyl)-(2,3,4,5,6-pentafluorophenyl)sulfon-amido)acetamido)-2-hydroxybenzoic acid] | 3.16 to 100
4 | CC(C)(C)c1cc(CN(C(=O)CN(Cc2cccnc2)S(=O)(=O)c2c(F)c(F)c(F)c(F)c2F)c2ccc(C(=O)O)c(O)c2)cc(C2CC2)c1 [Compound 1013, 4-(N-(3-(tert-butyl)-5-cyclopropylbenzyl)-2-(N-(pyridin-3-ylmethyl)-(2,3,4,5,6-pentafluoro-phenyl)sulfonamido)acetamido)-2-hydroxybenzoic acid] | 3.16 to 100
5 | CC(C)(C)c1cc(CN(C(=O)CN(Cc2ccc(Cl)cc2)S(=O)(=O)c2c(F)c(F)c(F)c(F)c2F)c2ccc(O)c(C(=O)O)c2)cc(C2CC2)c1 [Compound 1018, 5-(N-(3-(tert-butyl)-5-cyclopropylbenzyl)-2-(N-(4-chlorobenzyl)-(2,3,4,5,6-pentafluorophenyl)sulfon-amido)acetamido)-2-hydroxybenzoic acid] | 3.16 to 100
6 | CC(C)(C)c1cc(CN(C(=O)CN(Cc2ccc(Cl)cc2)S(=O)(=O)c2c(F)c(F)c(F)c(F)c2F)c2ccc(C(C)(C)C(=O)O)cc2)cc(C2CC2)c1 [Compound 1019, 2-(4-(N-(3-(tert-butyl)-5-cyclopropylbenzyl)-2-(N-(4-chlorobenzyl)-(2,3,4,5,6-pentafluorophenyl)sulfon-amido)acetamido)phenyl)-2-methylpropanoic acid] | 1 to 3.16
7 | O=C(O)c1ccc(N(Cc2cc(O)cc(OCC3CC3)c2)C(=O)CN(Cc2ccc(Cl)cc2)S(=O)(=O)c2c(F)c(F)c(F)c(F)c2F)cc1O [Compound 1020, 4-(2-(N-(4-chlorobenzyl)-(2,3,4,5,6-pentafluorophenyl)sulfon-amido)-N-(3-(cyclopropylmethoxy)-5-hydroxybenzyl)acetamido)-2-hydroxybenzoic acid] | 3.16 to 100
8 | COc1ccc(CN(CC(=O)N(Cc2cc(C3CC3)cc(C(C)(C)C)c2)c2ccc(C(=O)O)c(O)c2)S(=O)(=O)c2c(F)c(F)c(F)c(F)c2F)cc1 [Compound 1026, 4-(N-(3-(tert-butyl)-5-cyclopropylbenzyl)-2-(N-(4-methoxybenzyl)-(2,3,4,5,6-pentafluoro-phenyl)sulfonamido)acetamido)-2-hydroxybenzoic acid] | 3.16 to 100
9 | COc1ccc(CN(CC(=O)N(Cc2cc(C3CC3)cc(C(C)(C)C)c2)c2ccc(C(=O)O)c(O)c2)S(=O)(=O)c2c(F)c(F)c(F)c(F)c2F)cc1F [Compound 1027, 4-(N-(3-(tert-butyl)-5-cyclopropylbenzyl)-2-(N-(3-fluoro-4-methoxybenzyl)-(2,3,4,5,6-pentafluoro-phenyl)sulfonamido)acetamido)-2-hydroxybenzoic acid] | 3.16 to 100
10 | COc1cc(CN(CC(=O)N(Cc2cc(C3CC3)cc(C(C)(C)C)c2)c2ccc(C(=O)O)c(O)c2)S(=O)(=O)c2c(F)c(F)c(F)c(F)c2F)ccc1F [Compound 1028, 4-(N-(3-(tert-butyl)-5-cyclopropylbenzyl)-2-(N-(4-fluoro-3-methoxybenzyl)-(2,3,4,5,6-pentafluoro-phenyl)sulfonamido)acetamido)-2-hydroxybenzoic acid] | 1 to 3.16
11 | CC(C)(C)c1cc(CN(C(=O)CN(Cc2ccc(Cl)cc2)S(=O)(=O)c2c(F)c(F)c(F)c(F)c2F)c2ccc(O)c(O)c2)cc(C2CC2)c1 [Compound 1029, N-(3-(tert-butyl)-5-cyclopropylbenzyl)-2-(N-(4-chlorobenzyl)-(2,3,4,5,6-pentafluorophenyl)sulfonamido)-N-(3,4-dihydroxyphenyl) acetamide] | 3.16 to 100
12 | CC(C)(C)c1cc(CN(C(=O)CN(Cc2ccc(Cl)cc2)S(=O)(=O)c2c(F)c(F)c(F)c(F)c2F)c2cc(O)cc(O)c2)cc(C2CC2)c1 [Compound 1030, N-(3-(tert-butyl)-5-cyclopropylbenzyl)-2-(N-(4-chlorobenzyl)-(2,3,4,5,6-pentafluorophenyl)sulfonamido)-N-(3,5-dihydroxyphenyl) acetamide] | 3.16 to 100
13 | CC(C)(C)c1cc(CN(C(=O)CN(Cc2ccc(Cl)cc2)S(=O)(=O)c2c(F)c(F)c(F)c(F)c2F)c2ccc(C(=O)NO)cc2)cc(C2CC2)c1 [Compound 1032, 4-(N-(3-(tert-butyl)-5-cyclopropylbenzyl)-2-(N-(4-chlorobenzyl)-(2,3,4,5,6-pentafluorophenyl)sulfon-amido)acetamido)-N-hydroxybenzamide] | 3.16 to 100
14 | CC(C)(C)c1cc(CN(C(=O)CN(Cc2cccc(O)c2)S(=O)(=O)c2c(F)c(F)c(F)c(F)c2F)c2ccc(C(=O)O)c(O)c2)cc(C2CC2)c1 [Compound 1035, 4-(N-(3-(tert-butyl)-5-cyclopropylbenzyl)-2-(N-(3-hydroxybenzyl)-(2,3,4,5,6-pentafluoro-phenyl)sulfonamido)acetamido)-2-hydroxybenzoic acid] | 3.16 to 100
15 | CC(C)(C)c1cc(CN(C(=O)CN(Cc2ccccc2O)S(=O)(=O)c2c(F)c(F)c(F)c(F)c2F)c2ccc(C(=O)O)c(O)c2)cc(C2CC2)c1 [Compound 1036, 4-(N-(3-(tert-butyl)-5-cyclopropylbenzyl)-2-(N-(2-hydroxybenzyl)-(2,3,4,5,6-pentafluoro-phenyl)sulfonamido)acetamido)-2-hydroxybenzoic acid] | 1 to 3.16
16 | COc1cccc(CN(CC(=O)N(Cc2cc(C3CC3)cc(C(C)(C)C)c2)c2ccc(C(=O)O)c(O)c2)S(=O)(=O)c2c(F)c(F)c(F)c(F)c2F)c1 [Compound 1038, 4-(N-(3-(tert-butyl)-5-cyclopropylbenzyl)-2-(N-(3-methoxybenzyl)-(2,3,4,5,6-pentafluoro-phenyl)sulfonamido)acetamido)-2-hydroxybenzoic acid] | 3.16 to 100
17 | COC(=O)C(C)(C)c1ccc(N(Cc2cc(C3CC3)cc(C(C)(C)C)c2)C(=O)CN(Cc2ccc(Cl)cc2)S(=O)(=O)c2c(F)c(F)c(F)c(F)c2F)cc1 [Compound 1042, methyl 2-(4-(N-(3-(tert-butyl)-5-cyclopropylbenzyl)-2-(N-(4-chlorobenzyl)-(2,3,4,5,6-pentafluorophenyl)sulfon-amido)acetamido)phenyl)-2-methylpropanoate] | 3.16 to 100
18 | COC(=O)c1ccc(N(Cc2cc(C3CC3)cc(C(C)(C)C)c2)C(=O)CN(Cc2ccc(Cl)cc2)S(=O)(=O)c2c(F)c(F)c(F)c(F)c2F)cc1O [Compound 1051, methyl 4-(N-(3-(tert-butyl)-5-cyclopropylbenzyl)-2-(N-(4-chlorobenzyl)-(2,3,4,5,6-pentafluorophenyl)sulfon-amido)acetamido)-2-hydroxybenzoate] | 3.16 to 100
19 | CC(C)(C)c1cc(CN(C(=O)CN(Cc2ccccc2F)S(=O)(=O)c2c(F)c(F)c(F)c(F)c2F)c2ccc(C(=O)O)cc2NS(C)(=O)=O)cc(C2CC2)c1 [Compound 1059, 4-(N-(3-(tert-butyl)-5-cyclopropylbenzyl)-2-(N-(2-fluorobenzyl)-(2,3,4,5,6-pentafluoro-phenyl)sulfonamido)acetamido)-3-(methylsulfonamido) benzoic acid] | 3.16 to 100
20 | CC(C)Cc1cc(CN(C(=O)CN(Cc2ccccc2F)S(=O)(=O)c2c(F)c(F)c(F)c(F)c2F)c2ccc(C(=O)O)c(O)c2)cc(C2CC2)c1 [Compound 1067, 4-(N-(3-cyclopropyl-5-isobutylbenzyl)-2-(N-(2-fluorobenzyl)-(2,3,4,5,6-pentafluoro-phenyl)sulfonamido)acetamido)-2-hydroxybenzoic acid] | 3.16 to 100
21 | CN(C)c1cc(C(=O)O)cc(F)c1N(Cc1cc(C2CC2)cc(C(C)(C)C)c1)C(=O)CN(Cc1ccccc1F)S(=O)(=O)c1c(F)c(F)c(F)c(F)c1F [Compound 1069, 4-(N-(3-(tert-butyl)-5-cyclopropylbenzyl)-2-(N-(2-fluorobenzyl)-(2,3,4,5,6-pentafluoro-phenyl)sulfonamido)acetamido)-3-(dimethylamino)-5-fluorobenzoic acid] | 0.316 to 1
22 | CC(C)(C)c1cc(CN(C(=O)CN(Cc2ccccc2F)S(=O)(=O)c2c(F)c(F)c(F)c(F)c2F)c2ccc(C(=O)O)cc2NCCCCl)cc(C2CC2)c1 [Compound 1074, 4-(N-(3-(tert-butyl)-5-cyclopropylbenzyl)-2-(N-(2-fluorobenzyl)-(2,3,4,5,6-pentafluoro-phenyl)sulfonamido)acetamido)-3-((3-chloropropyl)amino) benzoic acid] | 1 to 3.16
23 | COc1cc(C(=O)O)ccc1N(Cc1cc(C2CC2)cc(C(C)(C)C)c1)C(=O)CN(Cc1ccc(F)nc1Cl)S(=O)(=O)c1c(F)c(F)c(F)c(F)c1F [Compound 1096, 4-(N-(3-(tert-butyl)-5-cyclopropylbenzyl)-2-(N-((2-chloro-6-fluoropyridin-3-yl)methyl)-(2,3,4,5,6-pentafluorophenyl)sulfon-amido)acetamido)-3-methoxybenzoic acid] | 1e-05 to 0.316
